Active and inactive are the calls of the source. No cut-off for these calls is given here.
Experiments:
[1] = molecular target: Histamine H2 receptor (Cavia porcellus) (UniProt P47747); test: Competitive antagonism of compound at histamine H2 receptor compared to 4-methylhistamine induced chronotropic response in guinea pig atria; + Potency ratio greater than 1.0; format: functional
[2] = molecular target: Histamine H2 receptor (Cavia porcellus) (UniProt P47747); test: Ratio of potency (3*10e-5M) to that of agonist for histamine H2 receptor, in an assay for guinea pig atria chronotropic response; format: functional
[3] = molecular target: Histamine H2 receptor (Cavia porcellus) (UniProt P47747); test: Competitive antagonism of compound at histamine H2 receptor compared to 4-methylhistamine induced chronotropic response in guinea pig atria expressed as potency ratio; Not significantly greater than 1.0 (Inactive); format: functional
[4] = molecular target: Histamine H2 receptor (Cavia porcellus) (UniProt P47747); test: Ratio of potency (3*10e-5M) to that of agonist for Histamine H2 receptor, in an assay for guinea pig atria chronotropic response; format: functional
[5] = molecular target: Histamine H2 receptor (Cavia porcellus) (UniProt P47747); test: Competitive antagonism of compound at histamine H2 receptor compared to 4-methylhistamine as effect on resting heart rate in guinea pig atria expressed as potency ratio; (Inactive); format: functional, tissue-based
[6] = molecular target: Histamine H2 receptor (Cavia porcellus) (UniProt P47747); test: Competitive antagonism of compound at histamine H2 receptor compared to 4-methylhistamine induced chronotropic response in guinea pig atria; nonparallel shift in dose response curve; format: functional; conditions: filed as antagonist
[7] = molecular target: Histamine H2 receptor (Cavia porcellus) (UniProt P47747); test: Competitive antagonism of compound at histamine H2 receptor compared to 4-methylhistamine as effect on resting heart rate in guinea pig atria expressed as potency ratio; Inactive; format: functional, tissue-based

Histamine H2 receptor (Cavia porcellus), sequence (P47747 whole entry): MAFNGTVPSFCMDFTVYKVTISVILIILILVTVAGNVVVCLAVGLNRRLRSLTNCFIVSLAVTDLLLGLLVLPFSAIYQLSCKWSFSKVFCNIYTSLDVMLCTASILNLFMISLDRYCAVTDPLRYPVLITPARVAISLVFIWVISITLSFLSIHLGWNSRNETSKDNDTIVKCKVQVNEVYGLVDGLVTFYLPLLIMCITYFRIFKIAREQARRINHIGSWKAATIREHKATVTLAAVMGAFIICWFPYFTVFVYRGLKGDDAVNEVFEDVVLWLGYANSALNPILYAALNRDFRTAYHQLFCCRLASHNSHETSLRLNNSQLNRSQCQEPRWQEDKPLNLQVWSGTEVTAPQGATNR

SMILES	Antagonism [1]	Potency ratio [2]	Antagonism [3]	also measured
C/N=C(\S)NCCSCc1cc2ccccc2[nH]1	> 1	3.35	–	–
CN/C(=N\CCSCc1nc[nH]c1C)NC#N	> 1	36.8	–	–
C/N=C(\S)NCCSCc1c[nH]c2ccccc12	–	1.06	> 1	–
S=C(NCCSCc1c[nH]c2ccccc12)Nc1ccccc1	–	–	inactive	Potency ratio [4]: 1.16
C/N=C(\NC#N)NCCSCc1cc2ccccc2[nH]1	–	1.76	–	Antagonism [5]: inactive
CS/C(=N\CCSCc1c[nH]c2ccccc12)NC#N	> 1	2.56	–	–
CS/C(=N\CCSCc1cc2ccccc2[nH]1)NC#N	–	6.04	–	Antagonism [6]: Non-competitive antagonist
C/N=C(\NC#N)NCCSCc1c[nH]c2ccccc12	–	0.84	inactive	–
S=C(NCCSCc1cc2ccccc2[nH]1)Nc1ccccc1	–	2.54	–	Antagonism [7]: inactive

Reference: ChEMBL document CHEMBL1121896, “Potential histamine H2-receptor blockers. 3- and 2-indole derivatives as immobile analogues of tautomeric forms of cimetidine” (J Med Chem, 1981)
